Assay results: patent US20260001928A1 (CORTERIA PHARMACEUTICALS, priority 2022, published 2026)
*1 amine or outer side, *2 acyl side, *3 side chain or, on linkers, in order; H or OH if unused. Where a SMILES comes first, the peptide text is derived from it. Side-chain parts run from the residue outwards. [ ]: non-standard residue; d: D form. The star is where a group is joined. C20 diacid = O=C(O)CCCCCCCCCCCCCCCCCCC(=O)*; C16 diacid = O=C(O)CCCCCCCCCCCCCCC(=O)*; γGlu = O=C(O)[C@H](CCC(=O)[*:2])N[*:1]; NMeI = CC[C@H](C)[C@H](NC)C(=O)O; AEEA = NCCOCCOCC(=O)O; Aib = CC(C)(N)C(=O)O

Test system: human LAD2 cells
Format: cell-based
Description: LAD2 cells (20000 cells/well, 96-well plates and 10,000 cells/well in 384-well plates) were incubated with compounds for 30 min. The R-hexosaminidase released into the supernatants and in cell lysates was quantified using the fluorogenic substrate 4-methylumbelliferyl-N-acetyl-b-D-glucosaminide.
On the day of the assay, the lyophilized peptides were dissolved in DMSO and/or PBS 1× pH 7.4, to obtain stock solutions. The stock solutions were used to prepare working serial dilutions to have final concentrations in assay ranging from 50, 100 or 300 to 0.1 or 0.001 μM. Each peptide was tested in biological duplicates. When compounds were dissolved in DMSO, the final solvent concentration in assay was 0.5% (v/v).
The percentage of degranulation, expressed as % of R-hexosaminidase release, was calculated by dividing the fluorescence signal of the supernatant by the sum of the signals from the supernatant and cell pellet (lysed with Triton X-100, final 1%) and multiplying by 100.
Dose-response curves were generated by plotting the % of R-hexosaminidase release versus total release of cells treated with triton (y-axis) against the concentrations of peptides tested (x-axis). The Mast Cell Degranulation (MCD) EC50 values and standard errors were calculated using XLfit 5.5.0.5 based on the following equation:
4 Parameter Sigmoidal Model: f=(A+((B−A)/(1+((C/x)^D))))
where A=Emin, B=Emax, C=EC50 and D=slope

Compared with CC[C@H](C)[C@H](NC)C(=O)N[C@H](C(=O)N[C@@H](CC(C)C)C(=O)N[C@@H](CO)C(=O)N[C@@H](CC(C)C)C(=O)N[C@@H](CC(=O)O)C(=O)N[C@@H](C(=O)N1CCC[C@H]1C(=O)N[C@H](C(=O)N[C@@H](CCCCN)C(=O)N[C@@H](CC(C)C)C(=O)N[C@@H](CCCCNC(=O)COCCOCCNC(=O)CC[C@H](NC(=O)CCCCCCCCCCCCCCCCCCC(=O)O)C(=O)O)C(=O)N[C@@H](CCCCN)C(=O)N[C@H](C(=O)N[C@@H](CC(C)C)C(=O)N[C@@H](CC(C)C)C(=O)N[C@@H](CCC(=O)O)C(=O)N[C@@H](CCC(N)=O)C(=O)N[C@@H](CCC(=O)O)C(=O)N[C@@H](CCCCN)C(=O)N[C@@H](CCC(N)=O)C(=O)N[C@@H](CCCCN)C(=O)NC(C)(C)C(=O)N[C@@H](CCC(N)=O)C(=O)N[C@@H](CCCNC(=N)N)C(=O)N[C@@H](CCC(=O)O)C(=O)N[C@@H](CCC(N)=O)C(=O)N[C@@H](C)C(=O)N[C@@H](CCC(=O)O)C(=O)N[C@H](C(=O)N[C@@H](CC(N)=O)C(=O)NC(C)(C)C(=O)N[C@@H](CCC(N)=O)C(=O)N[C@H](C(=O)N[C@@H](CC(C)C)C(=O)N[C@@H](C)C(=O)N[C@@H](CCC(N)=O)C(=O)N[C@H](C(N)=O)C(C)C)[C@@H](C)CC)[C@@H](C)O)[C@@H](C)CC)[C@@H](C)CC)C(C)C)C(C)C [Cmpd 234] (H-[NMeI]VLSLD[dV]PIKLK([AEEA-γGlu-C20 diacid])KILLEQEKQK[Aib]QREQAETN[Aib]QILAQV-NH2), CC[C@H](C)[C@H](NC(C)=O)C(=O)N[C@H](C(=O)N[C@@H](CC(C)C)C(=O)N[C@@H](CO)C(=O)N[C@@H](CC(C)C)C(=O)N[C@@H](CC(=O)O)C(=O)N[C@@H](C(=O)N1CCC[C@H]1C(=O)N[C@H](C(=O)N[C@@H](CCCCN)C(=O)N[C@@H](CC(C)C)C(=O)N[C@@H](CCCCNC(=O)CC[C@H](NC(=O)CCCCCCCCCCCCCCCCCCC(=O)O)C(=O)O)C(=O)N[C@@H](CCCCN)C(=O)N[C@H](C(=O)N[C@@H](CC(C)C)C(=O)N[C@@H](CC(C)C)C(=O)N[C@@H](CCC(=O)O)C(=O)N[C@@H](CCC(N)=O)C(=O)N[C@@H](CCC(=O)O)C(=O)N[C@@H](CCCCN)C(=O)N[C@@H](CCC(N)=O)C(=O)N[C@@H](CCCCN)C(=O)N[C@@H](C)C(=O)N[C@@H](CCC(N)=O)C(=O)N[C@@H](CCCNC(=N)N)C(=O)N[C@@H](CCC(=O)O)C(=O)N[C@@H](CCC(N)=O)C(=O)N[C@@H](C)C(=O)N[C@@H](CCC(=O)O)C(=O)N[C@H](C(=O)N[C@@H](CC(N)=O)C(=O)NC(C)(C)C(=O)N[C@@H](CCC(N)=O)C(=O)N[C@H](C(=O)N[C@@H](CC(C)C)C(=O)N[C@@H](C)C(=O)N[C@@H](CCC(N)=O)C(=O)N[C@H](C(N)=O)C(C)C)[C@@H](C)CC)[C@@H](C)O)[C@@H](C)CC)[C@@H](C)CC)C(C)C)C(C)C [Cmpd 212] (Ac-IVLSLD[dV]PIKLK([γGlu-C20 diacid])KILLEQEKQKAQREQAETN[Aib]QILAQV-NH2) is higher in EC50: 49.2 µM for the first, over 300 µM for the second.

CC[C@H](C)[C@H](NC)C(=O)N[C@H](C(=O)N[C@@H](CC(C)C)C(=O)N[C@@H](CO)C(=O)N[C@@H](CC(C)C)C(=O)N[C@@H](CC(=O)O)C(=O)N[C@@H](C(=O)N1CCC[C@H]1C(=O)N[C@H](C(=O)N[C@@H](CCCCN)C(=O)N[C@@H](CC(C)C)C(=O)N[C@@H](CCCCNC(=O)CC[C@H](NC(=O)CC[C@H](NC(=O)CCCCCCCCCCCCCCCCCCC(=O)O)C(=O)O)C(=O)O)C(=O)N[C@@H](CCCCN)C(=O)N[C@H](C(=O)N[C@@H](CC(C)C)C(=O)N[C@@H](CC(C)C)C(=O)N[C@@H](CCC(=O)O)C(=O)N[C@@H](CCC(N)=O)C(=O)N[C@@H](CCC(=O)O)C(=O)N[C@@H](CCCCN)C(=O)N[C@@H](CCC(N)=O)C(=O)N[C@@H](CCCCN)C(=O)N[C@@H](CCC(=O)O)C(=O)N[C@@H](CCC(N)=O)C(=O)N[C@@H](CCCNC(=N)N)C(=O)N[C@@H](CCC(=O)O)C(=O)N[C@@H](CCC(N)=O)C(=O)N[C@@H](C)C(=O)N[C@@H](CCC(=O)O)C(=O)N[C@H](C(=O)N[C@@H](CC(N)=O)C(=O)NC(C)(C)C(=O)N[C@@H](CCC(N)=O)C(=O)N[C@H](C(=O)N[C@@H](CC(C)C)C(=O)N[C@@H](C)C(=O)N[C@@H](CCC(N)=O)C(=O)N[C@H](C(N)=O)C(C)C)[C@@H](C)CC)[C@@H](C)O)[C@@H](C)CC)[C@@H](C)CC)C(C)C)C(C)C [Cmpd 242] (H-[NMeI]VLSLD[dV]PIKLK([γGlu-γGlu-C20 diacid])KILLEQEKQKEQREQAETN[Aib]QILAQV-NH2) and CC[C@H](C)[C@H](NC(C)=O)C(=O)N[C@H](C(=O)N[C@@H](CC(C)C)C(=O)N[C@@H](CO)C(=O)N[C@@H](CC(C)C)C(=O)N[C@@H](CC(=O)O)C(=O)N[C@@H](C(=O)N1CCC[C@H]1C(=O)N[C@H](C(=O)N[C@@H](CCCCN)C(=O)N[C@@H](CC(C)C)C(=O)N[C@@H](CCCCNC(=O)CC[C@H](NC(=O)CC[C@H](NC(=O)CCCCCCCCCCCCCCCCCCC(=O)O)C(=O)O)C(=O)O)C(=O)N[C@@H](CCCCN)C(=O)N[C@H](C(=O)N[C@@H](CC(C)C)C(=O)N[C@@H](CC(C)C)C(=O)N[C@@H](CCC(=O)O)C(=O)N[C@@H](CCC(N)=O)C(=O)N[C@@H](CCC(=O)O)C(=O)N[C@@H](CCCCN)C(=O)N[C@@H](CCC(N)=O)C(=O)N[C@@H](CCCCN)C(=O)N[C@@H](CCCCN)C(=O)N[C@@H](CCC(N)=O)C(=O)N[C@@H](CCCNC(=N)N)C(=O)N[C@@H](CCC(=O)O)C(=O)N[C@@H](CCC(N)=O)C(=O)N[C@@H](C)C(=O)N[C@@H](CCC(=O)O)C(=O)N[C@H](C(=O)N[C@@H](CC(N)=O)C(=O)NC(C)(C)C(=O)N[C@@H](CCC(N)=O)C(=O)N[C@H](C(=O)N[C@@H](CC(C)C)C(=O)N[C@@H](C)C(=O)N[C@@H](CCC(N)=O)C(=O)N[C@H](C(N)=O)C(C)C)[C@@H](C)CC)[C@@H](C)O)[C@@H](C)CC)[C@@H](C)CC)C(C)C)C(C)C [Cmpd 243] (Ac-IVLSLD[dV]PIKLK([γGlu-γGlu-C20 diacid])KILLEQEKQKKQREQAETN[Aib]QILAQV-NH2) cannot be ordered by EC50: over 300 µM for the first, over 300 µM for the second.

CC[C@H](C)[C@H](NC(C)=O)C(=O)N[C@H](C(=O)N[C@@H](CC(C)C)C(=O)N[C@@H](CO)C(=O)N[C@@H](CC(C)C)C(=O)N[C@@H](CC(=O)O)C(=O)N[C@@H](C(=O)N1CCC[C@H]1C(=O)N[C@H](C(=O)N[C@@H](C)C(=O)N[C@@H](CC(C)C)C(=O)N[C@@H](CCCCNC(=O)CC[C@H](NC(=O)CCCCCCCCCCCCCCC(=O)O)C(=O)O)C(=O)N[C@@H](CCCCN)C(=O)N[C@H](C(=O)N[C@@H](CC(C)C)C(=O)N[C@@H](CC(C)C)C(=O)N[C@@H](CCC(=O)O)C(=O)N[C@@H](CCC(N)=O)C(=O)N[C@@H](CCC(=O)O)C(=O)N[C@@H](CCCCN)C(=O)N[C@@H](CCC(N)=O)C(=O)N[C@@H](CCCCN)C(=O)N[C@@H](CCCCN)C(=O)N[C@@H](CCC(N)=O)C(=O)N[C@@H](CCCNC(=N)N)C(=O)N[C@@H](CCC(=O)O)C(=O)N[C@@H](CCC(N)=O)C(=O)N[C@@H](C)C(=O)N[C@@H](CCC(=O)O)C(=O)N[C@H](C(=O)N[C@@H](CC(N)=O)C(=O)NC(C)(C)C(=O)N[C@@H](CCC(N)=O)C(=O)N[C@H](C(=O)N[C@@H](CC(C)C)C(=O)N[C@@H](C)C(=O)N[C@@H](CCC(N)=O)C(=O)N[C@H](C(N)=O)C(C)C)[C@@H](C)CC)[C@@H](C)O)[C@@H](C)CC)[C@@H](C)CC)C(C)C)C(C)C [Cmpd 163] (Ac-IVLSLD[dV]PIALK([γGlu-C16 diacid])KILLEQEKQKKQREQAETN[Aib]QILAQV-NH2) and CC[C@H](C)[C@H](NC(C)=O)C(=O)N[C@H](C(=O)N[C@@H](CC(C)C)C(=O)N[C@@H](CO)C(=O)N[C@@H](CC(C)C)C(=O)N[C@@H](CC(=O)O)C(=O)N[C@@H](C(=O)N1CCC[C@H]1C(=O)N[C@H](C(=O)N[C@@H](CCCCN)C(=O)N[C@@H](CC(C)C)C(=O)N[C@@H](CCCCNC(=O)CC[C@H](NC(=O)CCCCCCCCCCCCCCC(=O)O)C(=O)O)C(=O)N[C@@H](CCCCN)C(=O)N[C@H](C(=O)N[C@@H](CC(C)C)C(=O)N[C@@H](CC(C)C)C(=O)N[C@@H](CCC(=O)O)C(=O)N[C@@H](CCC(N)=O)C(=O)N[C@@H](CCC(=O)O)C(=O)N[C@@H](C)C(=O)N[C@@H](CCC(N)=O)C(=O)N[C@@H](CCCCN)C(=O)N[C@@H](CCCCN)C(=O)N[C@@H](CCC(N)=O)C(=O)N[C@@H](CCCNC(=N)N)C(=O)N[C@@H](CCC(=O)O)C(=O)N[C@@H](CCC(N)=O)C(=O)N[C@@H](C)C(=O)N[C@@H](CCC(=O)O)C(=O)N[C@H](C(=O)N[C@@H](CC(N)=O)C(=O)NC(C)(C)C(=O)N[C@@H](CCC(N)=O)C(=O)N[C@H](C(=O)N[C@@H](CC(C)C)C(=O)N[C@@H](C)C(=O)N[C@@H](CCC(N)=O)C(=O)N[C@H](C(N)=O)C(C)C)[C@@H](C)CC)[C@@H](C)O)[C@@H](C)CC)[C@@H](C)CC)C(C)C)C(C)C [Cmpd 165] (Ac-IVLSLD[dV]PIKLK([γGlu-C16 diacid])KILLEQEAQKKQREQAETN[Aib]QILAQV-NH2) cannot be ordered by EC50: over 100 µM for the first, over 100 µM for the second.
